This is an account of results in the supplement of paper PMC10307832.

What all share (experiment): relative viability (nuclei count vs DMSO), 5 days (fraction); higher = more cells survive
Compound in assay [1]: COc1cc2nc(N3CCCN(C)CC3)nc(NC3CCN(Cc4ccccc4)CC3)c2cc1OC + C[C@@H](Oc1cc(-c2cnn(C3CCNCC3)c2)cnc1N)c1c(Cl)ccc(F)c1Cl [Crizotinib] (partner 1 µM)
In short, it runs like this: (§1)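 Five library-drug doses in √10 steps were combined with a fixed anchor-drug dose, or a single drug was given alone, by pin tool to lung cancer cell lines in 1536-well plates the day after seeding. Nuclei were stained and counted after 5 days. Relative viability is the nuclei count in treated wells over that in vehicle wells, taken as the median of duplicate plates.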

Compound in assay [2]: COc1cc2nc(N3CCCN(C)CC3)nc(NC3CCN(Cc4ccccc4)CC3)c2cc1OC + C[C@]1(O)C[C@@H](c2nc(-c3ccc4ccc(-c5ccccc5)nc4c3)c3c(N)nccn32)C1 [Linsitinib] (partner 1 µM)
In short, it runs like this:
as §1

Compound in assay [3]: COc1cc2nc(N3CCCN(C)CC3)nc(NC3CCN(Cc4ccccc4)CC3)c2cc1OC + CS(=O)(=O)N1CCN(Cc2cc3nc(-c4cccc5[nH]ncc45)nc(N4CCOCC4)c3s2)CC1 [Pictilisib] (partner 1 µM)
In short, it runs like this: as §1

Compound in assay [4]: COc1cc2nc(N3CCCN(C)CC3)nc(NC3CCN(Cc4ccccc4)CC3)c2cc1OC + Cc1cc(Nc2cc(N3CCN(C)CC3)nc(Sc3ccc(NC(=O)C4CC4)cc3)n2)n[nH]1 [Tozasertib] (partner 0.1 µM)
In short, it runs like this:
as §1

Compound in assay [5]: COc1cc2nc(N3CCCN(C)CC3)nc(NC3CCN(Cc4ccccc4)CC3)c2cc1OC + COc1cccc2cc(-c3nc([C@H]4CC[C@H](C(=O)O)CC4)n4ncnc(N)c34)[nH]c12 [OSI-027] (partner 0.5 µM)
In short, it runs like this: as §1

Turning to NCI-H838, the relative viability amounted to 0.81 in assay [1] (first compound 0.2 µM); 0.878 in assay [1] (first compound 0.6325 µM); 0.873 in assay [1] (first compound 2 µM); 0.828 in assay [1] (first compound 6.325 µM); 1.07 in assay [2] (first compound 0.2 µM); 0.936 in assay [2] (first compound 0.6325 µM). The relative viability in assay [2] (first compound 2 µM) was found to be 1.11; in assay [2] (first compound 6.325 µM), 0.85; in assay [3] (first compound 0.2 µM), 0.477; in assay [3] (first compound 0.6325 µM), 0.598; in assay [3] (first compound 2 µM), 0.479; in assay [3] (first compound 6.325 µM) it was 0.424. Further, the relative viability in assay [4] (first compound 0.2 µM) amounted to 0.28; in assay [4] (first compound 0.6325 µM), 0.27; in assay [4] (first compound 2 µM), 0.286; in assay [4] (first compound 6.325 µM), 0.246; in assay [5] (first compound 0.2 µM), 0.433; in assay [5] (first compound 0.6325 µM) it was 0.429. Besides, the values for the relative viability in assay [5] (first compound 2 µM) and in assay [5] (first compound 6.325 µM) were 0.362 and 0.375, respectively.

For the cell line NCI-H1355, the relative viability in assay [1] (first compound 0.2 µM) was found to be 1.08; in assay [1] (first compound 0.6325 µM) it was 1.17; in assay [1] (first compound 2 µM), 1.01; in assay [1] (first compound 6.325 µM), 0.993; in assay [2] (first compound 0.2 µM) it was 0.881; in assay [2] (first compound 0.6325 µM), 0.784. Also, the relative viability in assay [2] (first compound 2 µM) came to 0.831; in assay [2] (first compound 6.325 µM), 0.808; in assay [3] (first compound 0.2 µM) it was 0.434; in assay [3] (first compound 0.6325 µM) it was 0.442; in assay [3] (first compound 2 µM), 0.472; in assay [3] (first compound 6.325 µM), 0.476. The relative viability worked out at 0.565 in assay [4] (first compound 0.2 µM); 0.539 in assay [4] (first compound 0.6325 µM); 0.582 in assay [4] (first compound 2 µM); 0.546 in assay [4] (first compound 6.325 µM); 0.393 in assay [5] (first compound 0.2 µM); 0.456 in assay [5] (first compound 0.6325 µM). For the same cell line, the relative viability in assay [5] (first compound 2 µM) is 0.467; in assay [5] (first compound 6.325 µM), 0.401.

In the case of NCI-H1437, the relative viability in assay [1] (first compound 0.2 µM) came out at 0.901; in assay [1] (first compound 0.6325 µM), 0.866; in assay [1] (first compound 2 µM) it was 1.02; in assay [1] (first compound 6.325 µM), 0.879; in assay [2] (first compound 0.2 µM), 1.06; in assay [2] (first compound 0.6325 µM), 0.956. The relative viability in assay [2] (first compound 2 µM) was 1.11; in assay [2] (first compound 6.325 µM), 0.891; in assay [3] (first compound 0.2 µM), 0.436; in assay [3] (first compound 0.6325 µM), 0.496; in assay [3] (first compound 2 µM), 0.49; in assay [3] (first compound 6.325 µM) it was 0.323. Besides, the relative viability in assay [4] (first compound 0.2 µM) came out at 0.442; in assay [4] (first compound 0.6325 µM), 0.433; in assay [4] (first compound 2 µM), 0.469; in assay [4] (first compound 6.325 µM), 0.461; in assay [5] (first compound 0.2 µM), 0.901; in assay [5] (first compound 0.6325 µM) it was 0.876. The relative viability in assay [5] (first compound 2 µM) amounted to 0.85; in assay [5] (first compound 6.325 µM), 0.918.

For NCI-H1651, the relative viability in assay [1] (first compound 0.2 µM) came to 0.862; in assay [1] (first compound 0.6325 µM), 0.849; in assay [1] (first compound 2 µM), 0.896; in assay [1] (first compound 6.325 µM) it was 0.859; in assay [2] (first compound 0.2 µM) it was 1.02; in assay [2] (first compound 0.6325 µM), 0.903. Further, the relative viability in assay [2] (first compound 2 µM) is 1.09; in assay [2] (first compound 6.325 µM), 0.893; in assay [3] (first compound 0.2 µM) it was 0.638; in assay [3] (first compound 0.6325 µM), 0.591; in assay [3] (first compound 2 µM), 0.73; in assay [3] (first compound 6.325 µM) it was 0.462. The relative viability in assay [4] (first compound 0.2 µM) is 0.846; in assay [4] (first compound 0.6325 µM), 0.75; in assay [4] (first compound 2 µM), 1.01; in assay [4] (first compound 6.325 µM), 0.668; in assay [5] (first compound 0.2 µM), 0.706; in assay [5] (first compound 0.6325 µM) it was 0.686. Besides, the relative viability in assay [5] (first compound 2 µM) turned out to be 0.729; in assay [5] (first compound 6.325 µM), 0.714.

On to NCI-H1666, for which the relative viability is 0.969 in assay [1] (first compound 0.2 µM); 0.958 in assay [1] (first compound 0.6325 µM); 0.981 in assay [1] (first compound 2 µM); 0.886 in assay [1] (first compound 6.325 µM); 0.866 in assay [2] (first compound 0.2 µM); 0.919 in assay [2] (first compound 0.6325 µM). The relative viability was determined as 0.783 in assay [2] (first compound 2 µM); 0.675 in assay [2] (first compound 6.325 µM); 0.547 in assay [3] (first compound 0.2 µM); 0.424 in assay [3] (first compound 0.6325 µM); 0.579 in assay [3] (first compound 2 µM); 0.275 in assay [3] (first compound 6.325 µM). Moreover, the relative viability stood at 0.569 in assay [4] (first compound 0.2 µM); 0.727 in assay [4] (first compound 0.6325 µM); 0.635 in assay [4] (first compound 2 µM); 0.625 in assay [4] (first compound 6.325 µM); 0.816 in assay [5] (first compound 0.2 µM); 0.877 in assay [5] (first compound 0.6325 µM). Further, the relative viability in assay [5] (first compound 2 µM) was 0.757; in assay [5] (first compound 6.325 µM), 0.859.

Turning to NCI-H1734, the relative viability was found to be 0.66 in assay [1] (first compound 0.2 µM); 0.602 in assay [1] (first compound 0.6325 µM); 0.687 in assay [1] (first compound 2 µM); 0.661 in assay [1] (first compound 6.325 µM); 0.964 in assay [2] (first compound 0.2 µM); 0.811 in assay [2] (first compound 0.6325 µM). Moreover, the relative viability came out at 0.832 in assay [2] (first compound 2 µM); 0.83 in assay [2] (first compound 6.325 µM); 0.459 in assay [3] (first compound 0.2 µM); 0.418 in assay [3] (first compound 0.6325 µM); 0.392 in assay [3] (first compound 2 µM); 0.384 in assay [3] (first compound 6.325 µM). Moreover, the relative viability in assay [4] (first compound 0.2 µM) came out at 0.277; in assay [4] (first compound 0.6325 µM), 0.249; in assay [4] (first compound 2 µM) it was 0.26; in assay [4] (first compound 6.325 µM), 0.217; in assay [5] (first compound 0.2 µM), 0.587; in assay [5] (first compound 0.6325 µM) it was 0.583. The relative viability in assay [5] (first compound 2 µM) amounted to 0.506; in assay [5] (first compound 6.325 µM), 0.501.

As for NCI-H1755, the relative viability turned out to be 0.868 in assay [1] (first compound 0.2 µM); 0.792 in assay [1] (first compound 0.6325 µM); 0.919 in assay [1] (first compound 2 µM); 0.814 in assay [1] (first compound 6.325 µM); 0.974 in assay [2] (first compound 0.2 µM); 0.982 in assay [2] (first compound 0.6325 µM). Besides, the relative viability in assay [2] (first compound 2 µM) is 0.946; in assay [2] (first compound 6.325 µM) it was 0.932; in assay [3] (first compound 0.2 µM) it was 0.423; in assay [3] (first compound 0.6325 µM) it was 0.425; in assay [3] (first compound 2 µM), 0.377; in assay [3] (first compound 6.325 µM), 0.317. Besides, the relative viability in assay [4] (first compound 0.2 µM) worked out at 0.668; in assay [4] (first compound 0.6325 µM) it was 0.464; in assay [4] (first compound 2 µM), 0.592; in assay [4] (first compound 6.325 µM), 0.557; in assay [5] (first compound 0.2 µM) it was 0.791; in assay [5] (first compound 0.6325 µM), 0.663. Also, the relative viability in assay [5] (first compound 2 µM) turned out to be 0.671; in assay [5] (first compound 6.325 µM), 0.518.
